This passage reports Ki results from US9079866B2, “Flap modulators” (JANSSEN PHARMACEUTICA NV, priority 2013, dated 2015).

The pKi is −log10 of the Ki, conventionally taken in molar units.

pKi: −log10 of the molar value. Where a name gives a salt, the structure may show the parent alone. A value given as a limit tells only on which side of the number the result lay.

Chain of human FLAP (P20292 whole entry): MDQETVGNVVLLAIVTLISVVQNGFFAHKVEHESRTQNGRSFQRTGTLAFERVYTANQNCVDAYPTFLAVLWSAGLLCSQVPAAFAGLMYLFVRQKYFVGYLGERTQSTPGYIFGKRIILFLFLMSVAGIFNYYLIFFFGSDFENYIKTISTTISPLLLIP

The first experiment deals with human FLAP (Homo sapiens (Human), UniProt P20292). The experiment in a line: FLAP binding assay (HTRF format). Particulars: human FLAP wild type, HTRF format; average of two plates, duplicates. The protocol:
The ability of the compounds of the present invention to treat a FLAP-mediated disease and/or disorder, or associated symptoms or complications thereof, was determined using the following procedures. Binding assay data represent the average value obtained from two different assay plates, with samples run in duplicate on each plate. Human whole blood assay data represent a single replicate on an assay plate using whole blood from at least one healthy donor.
Data are expressed as a HTRF ratio.
On the technique in general: In TR-FRET formats the signal depends on donor and acceptor labels being close together.
Regarding `CC(C)(C)S(=O)(=O)c1ccccc1-c1ccc(-c2cnc(N)cn2)c(F)c1` [Example 194, 5-[2′-(tert-Butylsulfonyl)-3-fluorobiphenyl-4-yl]pyrazin-2-amine], the pKi is 6.13.

Compound `Nc1ncc(-c2ccc(-c3ccccc3S(=O)(=O)N3CCOCC3)cc2F)cn1` [Example 303, 5-[3-Fluoro-2′-(morpholin-4-ylsulfonyl)biphenyl-4-yl]pyrimidin-2-amine trifluoroacetic acid salt] showed a negative-log Ki (pKi) of 6.21.

The compound `Nc1ncc(-c2ccc(-c3ccccc3NS(=O)(=O)N3CCOCC3)cc2F)cn1` [Example 310, N-[4′-(2-Aminopyrimidin-5-yl)-3′-fluorobiphenyl-2-yl]morpholine-4-sulfonamide] gave a negative logarithm of the Ki (pKi) of 6.31.

`Nc1cnc(S(=O)(=O)c2ccccc2-c2ccc(-c3cnc(N)nc3)c(F)c2)nc1` [Example 339, 5-{2′-[(5-Aminopyrimidin-2-yl)sulfonyl]-3-fluorobiphenyl-4-yl}pyrimidin-2-amine hydrochloride] showed a negative logarithm of the Ki (pKi) of 5.60.

`Nc1cnc(-c2ccc(-c3ccccc3NS(N)(=O)=O)cc2F)cn1` [Example 33, N-[4′-(5-Aminopyrazin-2-yl)-3′-fluorobiphenyl-2-yl]sulfamide] showed a negative logarithm of the Ki (pKi) of 6.52.

In turn, `C[C@H](NS(=O)(=O)c1ccccc1-c1ccc(-c2cnc(N)nc2)c(F)c1)C(=O)O` [Example 308, N-{[4′-(2-Aminopyrimidin-5-yl)-3′-fluorobiphenyl-2-yl]sulfonyl}-L-alanine] showed a negative-log Ki (pKi) of less than 5.00.

The same experiment, now with this note: read-out: FLAP Binding wild type HTRF Ki.
Regarding `Nc1cnc(-c2ccc(-c3ccccc3CS(=O)(=O)N3CCNC(=O)C3)cc2F)cn1` [Example 223, 4-({[4′-(5-Aminopyrazin-2-yl)-3′-fluorobiphenyl-2-yl]methyl}sulfonyl)piperazin-2-one formic acid salt], the pKi is 6.18.

Still in this experiment, the particulars now being: wild type FLAP, HTRF format.
For `CCOC(=O)c1cccc2nc(-c3ccc(-c4ccccc4S(=O)(=O)NC(C)(C)C)cc3F)cn12` [Example 587, Ethyl 2-[2′-(tert-butylsulfamoyl)-3-fluorobiphenyl-4-yl]imidazo[1,2-a]pyridine-5-carboxylate], the negative logarithm of the Ki (pKi) is less than 5.00.

Take `Nc1ncc(-c2ccc(-c3cccnc3C(=O)N3CCOCC3)cc2F)cn1` [Example 782, 5-{2-Fluoro-4-[2-(morpholin-4-ylcarbonyl)pyridin-3-yl]phenyl}pyrimidin-2-amine]: the negative logarithm of the Ki (pKi) is less than 5.00.

The compound `Nc1ncc(-c2ccc(-c3ccccc3C(=O)N3CCOCC3)cc2F)cn1` [Example 499, 5-[3-Fluoro-2′-(morpholin-4-ylcarbonyl)biphenyl-4-yl]pyrimidin-2-amine] gave a negative logarithm of the Ki (pKi) of 6.36.

In turn, `Nc1cnc(-c2ccc(-c3ccccc3C(=O)N3CCC[C@H](O)C3)cc2F)cn1` [Example 768, (3S)-1-{[4′-(5-Aminopyrazin-2-yl)-3′-fluorobiphenyl-2-yl]carbonyl}piperidin-3-ol] gave a negative logarithm of the Ki (pKi) of 6.24.

`COCCCS(=O)(=O)c1ncccc1-c1ccc(-c2cnc(N)nc2)c(F)c1` [Example 817, 5-(2-Fluoro-4-(2-((3-methoxypropyl)sulfonyl)pyridine-3-yl)phenyl)pyrimidin-2-amine hydrogen chloride salt] gave a pKi of 6.33.

`Nc1ncc(-c2ccc(-c3ccccc3C(=O)NC3CCOCC3)cc2F)cn1` [Example 797, 2-[4-(2-Aminopyrimidin-5-yl)-3-fluoro-phenyl]-N-tetrahydropyran-4-yl-benzamide] had a pKi of less than 5.00.

With `Nc1cncc(S(=O)(=O)c2ccccc2-c2ccc(-c3cnc(N)nc3)c(F)c2)n1` [Example 725, 5-{2′-[(6-Aminopyrazin-2-yl)sulfonyl]-3-fluorobiphenyl-4-yl}pyrimidin-2-amine], the pKi is 5.89.

`CS(=O)(=O)Nc1ccccc1-c1ccc(-c2ccc(N)nc2)c(F)c1` [Example 659, N-(4′-(6-Aminopyridin-3-yl)-3′-fluoro-[1,1′-biphenyl]-2-yl)methanesulfonamide] showed a negative logarithm of the Ki (pKi) of approximately 6.12.

On to `CC(C)(C)NS(=O)(=O)c1ccccc1-c1ccc(-c2cn3cc(C#N)ccc3n2)c(F)c1` [Example 585, N-tert-Butyl-4′-(6-cyanoimidazo[1,2-a]pyridin-2-yl)-3′-fluorobiphenyl-2-sulfonamide], for which the negative logarithm of the Ki (pKi) was less than 5.00.

In the case of `Nc1cnc(-c2ccc(-c3ccccc3)c(F)c2F)cn1` [Example 833, 5-(2,3-Difluorobiphenyl-4-yl)pyrazin-2-amine], the pKi is approximately 6.30.

For `Nc1cnc(-c2ccc(-c3ccccc3C(=O)N3CC[C@@H](O)C3)cc2F)cn1` [Example 769, (3R)-1-{[4′-(5-Aminopyrazin-2-yl)-3′-fluorobiphenyl-2-yl]carbonyl}pyrrolidin-3-ol], the negative logarithm of the Ki (pKi) was 5.81.

In turn, `Nc1ncc(-c2ccc(-c3ccccc3S(=O)(=O)CC3CC3)cc2F)cn1` [Example 728, 5-{2′-[(Cyclopropylmethyl)sulfonyl]-3-fluorobiphenyl-4-yl}pyrimidin-2-amine] showed a negative logarithm of the Ki (pKi) of 6.11.

As for `C[C@H]1COCCN1C(=O)c1ccccc1-c1ccc(-c2cnc(N)nc2)c(F)c1` [Example 778, 5-(3-Fluoro-2′-{[(3S)-3-methylmorpholin-4-yl]carbonyl}biphenyl-4-yl)pyrimidin-2-amine], the pKi was less than 5.00.

As for `NCCOc1ccccc1-c1ccc(-c2cnc(N)nc2)c(F)c1` [Example 641, 5-[2′-(2-Aminoethoxy)-3-fluorobiphenyl-4-yl]pyrimidin-2-amine], the negative logarithm of the Ki (pKi) was less than 5.00.

In turn, `Nc1cnc(-c2ccc(-c3ccccc3OC3CCNCC3)cc2F)cn1` [Example 630, 5-[3-Fluoro-2′-(piperidin-4-yloxy)biphenyl-4-yl]pyrazin-2-amine] showed a pKi of 5.72.

The compound `Nc1ncc(-c2ccc(-c3ccccc3S(=O)(=O)c3ccncn3)cc2F)cn1` [Example 720, 5-[3-Fluoro-2′-(pyrimidin-4-ylsulfonyl)biphenyl-4-yl]pyrimidin-2-amine] showed a pKi of less than 5.00.

Consider `Nc1cc(S(=O)(=O)c2ccccc2-c2ccc(-c3cnc(N)nc3)c(F)c2)ncn1` [Example 721, 5-{2′-[(6-Aminopyrimidin-4-yl)sulfonyl]-3-fluorobiphenyl-4-yl}pyrimidin-2-amine], for which the pKi was less than 5.00.

In turn, `Cc1c(-c2ccccc2NS(C)(=O)=O)ccc(-c2cnc(N)cn2)c1F` [Example 463, N-[4′-(5-Aminopyrazin-2-yl)-3′-fluoro-2′-methylbiphenyl-2-yl]methanesulfonamide] gave a negative logarithm of the Ki (pKi) of 6.01.

`CS(=O)(=O)Nc1ccccc1-c1ccc(-c2cnc(N)cn2)cc1` [Example 593, N-[4′-(5-Aminopyrazin-2-yl)biphenyl-2-yl]methanesulfonamide] showed a pKi of less than 5.00.

`CCN(CC)C(=O)CS(=O)(=O)c1ccccc1-c1ccc(-c2cnc(N)nc2)c(F)c1` [Example 600, 2-{[4′-(2-Aminopyrimidin-5-yl)-3′-fluorobiphenyl-2-yl]sulfonyl}-N,N-diethylacetamide] gave a pKi of less than 5.00.

`CN(C)S(=O)(=O)c1ccccc1-c1ccc(-c2cnc(N)cn2)cc1F` [Example 575, 4′-(5-Aminopyrazin-2-yl)-2′-fluoro-N,N-dimethylbiphenyl-2-sulfonamide] gave a pKi of 6.12.

`Nc1ncc(-c2ccc(-c3ccccc3C(=O)N3CC[C@H](O)C3)cc2F)cn1` [Example 772, (3S)-1-{[4′-(2-Aminopyrimidin-5-yl)-3′-fluorobiphenyl-2-yl]carbonyl}pyrrolidin-3-ol] had a pKi of less than 5.00.

With `CC(C)(C)NS(=O)(=O)c1ccccc1-c1ccc(-c2cn3cc(C(N)=O)ccc3n2)c(F)c1` [Example 582, 2-[2′-(tert-Butylsulfamoyl)-3-fluorobiphenyl-4-yl]imidazo[1,2-a]pyridine-6-carboxamide], the negative logarithm of the Ki (pKi) is less than 5.00.

`NCC1(S(=O)(=O)c2ccccc2-c2ccc(-c3cnc(N)nc3)c(F)c2)CCCC1` [Example 740, 5-(2′-{[1-(Aminomethyl)cyclopentyl]sulfonyl}-3-fluorobiphenyl-4-yl)pyrimidin-2-amine] had a pKi of less than 5.00.

The compound `Nc1cnc(-c2ccc(-c3cc(C(F)(F)F)ccc3-c3cnc(N)nc3)cc2F)cn1` [Example 845, 5-[4′-(5-Aminopyrazin-2-yl)-3′-fluoro-5-(trifluoromethyl)biphenyl-2-yl]pyrimidin-2-amine] showed a negative logarithm of the Ki (pKi) of less than 5.00.

As for `Nc1cnc(-c2ccc(-c3ccccc3C(=O)N3CCNC(=O)C3)cc2F)cn1` [Example 519, 4-{[4′-(5-Aminopyrazin-2-yl)-3′-fluorobiphenyl-2-yl]carbonyl}piperazin-2-one], the pKi was less than 5.00.

As to `Nc1cnc(-c2ccc(-c3ccccc3OC(F)(F)F)cc2F)cn1` [Example 475, 5-[3-Fluoro-2′-(trifluoromethoxy)biphenyl-4-yl]pyrazin-2-amine], the pKi was 6.12.

Regarding `Nc1cnc(-c2ccc(-c3cccnc3N3CCCC3)cc2F)cn1` [Example 859, 5-[2-Fluoro-4-(2-pyrrolidin-1-ylpyridin-3-yl)phenyl]pyrazin-2-amine], the pKi is approximately 5.90.

`Nc1ccnc(S(=O)(=O)c2ccccc2-c2ccc(-c3cnc(N)nc3)c(F)c2)n1` [Example 722, 5-{2′-[(4-Aminopyrimidin-2-yl)sulfonyl]-3-fluorobiphenyl-4-yl}pyrimidin-2-amine] had a pKi of less than 5.00.

`Nc1ncc(-c2ccc(-c3ccccc3S(=O)(=O)CCNC(=O)c3ccccc3)cc2F)cn1` [Example 716, N-(2-{[4′-(2-Aminopyrimidin-5-yl)-3′-fluorobiphenyl-2-yl]sulfonyl}ethyl)benzamide] gave a negative-log Ki (pKi) of less than 5.00.

As for `C[S+]([O-])c1ccccc1-c1ccc(-c2cnc(N)cn2)c(F)c1` (racemic) [Example 700, racemic 5-[3-Fluoro-2′-(methylsulfinyl)biphenyl-4-yl]pyrazin-2-amine], the negative-log Ki (pKi) was less than 5.00.

Turning to `CC(C)(C)NS(=O)(=O)c1ccccc1-c1ccc(-c2ccc3[nH]c(=O)[nH]c(=O)c3c2)c(F)c1` [Example 596, N-tert-Butyl-4′-(2,4-dioxo-1,2,3,4-tetrahydroquinazolin-6-yl)-3′-fluorobiphenyl-2-sulfonamide], the pKi is less than 5.00.
